# Values of other authors in patent US20050085455A1, “Photodynamic therapy for local adipocyte reduction” (Light Sciences Corporation, priority 2003, published 2005).
# Details: systemically administered sensitizer in clinical use; for duration of skin sensitization: result in words
compound,measurement,setting,value
CCOC(=O)C1=Cc2c3nc(cc4nc(cc5[n-]c(cc6[n-]c2c(C)c6CC)c(C)c5CC)C(C)=C4CC)[C@@H](C)[C@]13CC.[Cl-].[Cl-].[Sn] (racemic) [Purlytin],duration of skin sensitization,,several weeks
Oc1cccc(-c2c3nc(c(-c4cccc(O)c4)c4ccc([nH]4)c(-c4cccc(O)c4)c4nc(c(-c5cccc(O)c5)c5ccc2[nH]5)CC4)C=C3)c1 [Foscan],duration of skin sensitization,,several weeks
sodium porfimer [Photophrin],duration of photosensitivity,skin photosensitivity,up to 6 weeks
